According to patent US20100003217A1, “Compounds and Pharmaceutical Compositions for the Treatment of Viral Infections” (priority 2008, published 2010):
Values joined by “and” are separate entries in the source; they are usually repeats but may differ in a detail not shown here. Equal entries are not always repeated.

Tested on: human primary hepatocytes
Assay: Metabolic disposition of [^14C]-Compound 1 and [^14C]-2′-C-methyl guanosine in human primary hepatocytes (incubation medium, cellular extracts, nucleotide levels)
Type: in vitro ADME
Conditions: for AUC (area under the concentration-time curve) of Compound 7 levels: 0-24 h
Procedure, shortened: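 Radio-HPLC and liquid scintillation counting quantified metabolites in incubation medium and in 70% methanol cell extracts. Samples came from cultured rat, monkey or human primary hepatocytes exposed at 37° C to 1 or 10 μM [^14C]-compound or [^14C]-2′-C-methyl guanosine, sampled at 1–24 hours. Phosphates were confirmed by phosphatase digestion to the nucleoside.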

[1] = human hepatocytes (Hu775), 1 μM [^14C]-Compound 1, 1 h
[2] = human hepatocytes (Hu775), 1 μM [^14C]-Compound 1, 8 h
[3] = human hepatocytes (Hu775), 1 μM [^14C]-Compound 1, 24 h
[4] = human hepatocytes Hu775, 1 μM [^14C]-2′-C-methyl guanosine, 1 h
[5] = human hepatocytes Hu775, 1 μM [^14C]-2′-C-methyl guanosine, 8 h
[6] = human hepatocytes Hu775, 1 μM [^14C]-2′-C-methyl guanosine, 24 h

C[C@@]1(O)[C@H](O)[C@@H](COP(=O)(O)OP(=O)(O)OP(=O)(O)O)O[C@H]1n1cnc2c(=O)[nH]c(N)nc21 [Compound 7, [(2R)-2-methyl-β-D-ribofuranosyl]guanine 5′-triphosphate]
metabolites observed in cellular extracts (% of total radioactivity) (human hepatocytes (Hu759, Hu775), 10 μM [^14C]-2′-C-methyl guanosine, 1 h): 2.40% and 3.93%
metabolites observed in cellular extracts (% of total radioactivity) (human hepatocytes (Hu759, Hu775), 10 μM [^14C]-2′-C-methyl guanosine, 4 h): 11.1% and 19.4%
metabolites observed in cellular extracts (% of total radioactivity) (human hepatocytes (Hu759, Hu775), 10 μM [^14C]-2′-C-methyl guanosine, 8 h): 19.6% and 34.1%
metabolites observed in cellular extracts (% of total radioactivity) (human hepatocytes (Hu759, Hu775), 10 μM [^14C]-2′-C-methyl guanosine, 24 h): 36.1% and 45.8%
metabolites observed in cellular extracts (% of total radioactivity) (human hepatocytes (Hu759, Hu775), 10 μM [^14C]-Compound 1, 1 h): 34.2% and 46.4%
metabolites observed in cellular extracts (% of total radioactivity) (human hepatocytes (Hu759, Hu775), 10 μM [^14C]-Compound 1, 4 h): 63.1% and 69.7%
metabolites observed in cellular extracts (% of total radioactivity) (human hepatocytes (Hu759, Hu775), 10 μM [^14C]-Compound 1, 8 h): 70.5% and 74.1%
metabolites observed in cellular extracts (% of total radioactivity) (human hepatocytes (Hu759, Hu775), 10 μM [^14C]-Compound 1, 24 h): 69.5% and 59.6%
2′-C-methyl guanosine nucleotide levels in cellular extracts [1]: 8.80 pmol/million cells
metabolites observed in cellular extracts (% of total radioactivity) [1]: 48.5%
2′-C-methyl guanosine nucleotide levels in cellular extracts [2]: 44.2 pmol/million cells
metabolites observed in cellular extracts (% of total radioactivity) [2]: 75.0%
2′-C-methyl guanosine nucleotide levels in cellular extracts [3]: 60.4 pmol/million cells
metabolites observed in cellular extracts (% of total radioactivity) [3]: 67.0%
Compound 7 AUC0-24h (human hepatocytes (n=1), 1 μM [^14C]-2′-C-methyl guanosine): 302 pmol*h/million cells
Compound 7 AUC0-24h (human hepatocytes (n=1), 1 μM [^14C]-Compound 1): 1,027 pmol*h/million cells
Compound 7 AUC0-24h (human hepatocytes (n=2), 10 μM [^14C]-Compound 1, mean): 7,398 pmol*h/million cells
2′-C-methyl guanosine nucleotide levels in cellular extracts (human hepatocytes Hu759, 10 μM [^14C]-2′-C-methyl guanosine, 0 h): 0 pmol/million cells
AUC (area under the concentration-time curve) of Compound 7 levels (human hepatocytes Hu759, 10 μM [^14C]-2′-C-methyl guanosine): 2871 pmol * hr/million cells
2′-C-methyl guanosine nucleotide levels in cellular extracts (human hepatocytes Hu759, 10 μM [^14C]-2′-C-methyl guanosine, 1 h): 9.70 pmol/million cells
2′-C-methyl guanosine nucleotide levels in cellular extracts (human hepatocytes Hu759, 10 μM [^14C]-2′-C-methyl guanosine, 4 h): 51.0 pmol/million cells
2′-C-methyl guanosine nucleotide levels in cellular extracts (human hepatocytes Hu759, 10 μM [^14C]-2′-C-methyl guanosine, 8 h): 96.0 pmol/million cells
2′-C-methyl guanosine nucleotide levels in cellular extracts (human hepatocytes Hu759, 10 μM [^14C]-2′-C-methyl guanosine, 24 h): 214 pmol/million cells
2′-C-methyl guanosine nucleotide levels in cellular extracts (human hepatocytes Hu759, 10 μM [^14C]-Compound 1, 0 h): 0 pmol/million cells
AUC (area under the concentration-time curve) of Compound 7 levels (human hepatocytes Hu759, 10 μM [^14C]-Compound 1): 5759 pmol * hr/million cells
2′-C-methyl guanosine nucleotide levels in cellular extracts (human hepatocytes Hu759, 10 μM [^14C]-Compound 1, 1 h): 24.0 pmol/million cells
2′-C-methyl guanosine nucleotide levels in cellular extracts (human hepatocytes Hu759, 10 μM [^14C]-Compound 1, 4 h): 166 pmol/million cells
2′-C-methyl guanosine nucleotide levels in cellular extracts (human hepatocytes Hu759, 10 μM [^14C]-Compound 1, 8 h): 225 pmol/million cells
2′-C-methyl guanosine nucleotide levels in cellular extracts (human hepatocytes Hu759, 10 μM [^14C]-Compound 1, 24 h): 360 pmol/million cells
AUC (area under the concentration-time curve) of Compound 7 levels (human hepatocytes Hu775, 1 μM [^14C]-2′-C-methyl guanosine): 302 pmol * hr/million cells
2′-C-methyl guanosine nucleotide levels in cellular extracts [4]: 1.90 pmol/million cells
Major metabolites observed in cellular extracts (% of total radioactivity) [4]: 5.36 % of total radioactivity
2′-C-methyl guanosine nucleotide levels in cellular extracts [5]: 11.0 pmol/million cells
Major metabolites observed in cellular extracts (% of total radioactivity) [5]: 27.3 % of total radioactivity
2′-C-methyl guanosine nucleotide levels in cellular extracts [6]: 21.0 pmol/million cells
Major metabolites observed in cellular extracts (% of total radioactivity) [6]: 46.3 % of total radioactivity
AUC (area under the concentration-time curve) of Compound 7 levels (human hepatocytes Hu775, 1 μM [^14C]-Compound 1): 1027 pmol * hr/million cells
2′-C-methyl guanosine nucleotide levels in cellular extracts (human hepatocytes Hu775, 10 μM [^14C]-2′-C-methyl guanosine, 0 h): 0 pmol/million cells
AUC (area under the concentration-time curve) of Compound 7 levels (human hepatocytes Hu775, 10 μM [^14C]-2′-C-methyl guanosine): 3548 pmol * hr/million cells
2′-C-methyl guanosine nucleotide levels in cellular extracts (human hepatocytes Hu775, 10 μM [^14C]-2′-C-methyl guanosine, 1 h): 18.5 pmol/million cells
2′-C-methyl guanosine nucleotide levels in cellular extracts (human hepatocytes Hu775, 10 μM [^14C]-2′-C-methyl guanosine, 4 h): 86 pmol/million cells and 86.0 pmol/million cells
2′-C-methyl guanosine nucleotide levels in cellular extracts (human hepatocytes Hu775, 10 μM [^14C]-2′-C-methyl guanosine, 8 h): 149 pmol/million cells
2′-C-methyl guanosine nucleotide levels in cellular extracts (human hepatocytes Hu775, 10 μM [^14C]-2′-C-methyl guanosine, 24 h): 215 pmol/million cells
2′-C-methyl guanosine nucleotide levels in cellular extracts (human hepatocytes Hu775, 10 μM [^14C]-Compound 1, 0 h): 0 pmol/million cells
